Results from US20250027954A1, “METHODS OF DETECTING AND TREATING CEREBRAL ANEURYSMS” (UNIVERSITY OF PITTSBURGH-OF THE COMMONWEALTH SYSTEM OF …, priority 2022, published 2025).
“Also recorded” adds a separate entry of the source.

Tests used:
[1] = system: murine cerebral aneurysm model; assay: Mouse intracranial aneurysm model: aneurysm formation; assay type: in vivo, mouse (C57BL/6); details: controls 57%, n=6 and 7
Description: Mouse intracranial aneurysm model. Murine intracranial aneurysms were created in female 8-12 week-old C57BL/6 mice (Charles River Laboratories, Wilmington, MA) following established protocols. Briefly, the left common carotid artery and the right renal artery are ligated to induce hypertension. One week later, an Alzet micro-osmotic pump model 1004 (DURECT Corp, Cupertino, CA) was implanted subdermally to deliver Angiotensin II (Bachem AG, Switzerland) at 1000 ng/kg/min; and 10 μL of 0.8% porcine elastase (Worthington Biochemical Corp, Lakewood, NJ) in normal saline was injected into the right basal cistern using stereotactic coordinates: 1.2 mm rostral of bregma, 0.7 mm lateral of midline and 5.3 mm ventral of the dorsal aspect of the skull. The animals were fed a hypertensive diet with 8% NaCl and 0.12% BAPN (TEKLAD). PBS-treated animals received […] injection of phosphate buffered saline subcutaneously every two days. […] All animal experimentation was performed under the Institutional Animal Care and Use Committee-approved protocols of the University of Pittsburgh.

[2] = system: cytokine expression in aneurysm-induced cerebral vasculature; assay: Mouse cytokine arrays (96 cytokines) of aneurysm-induced cerebral vasculature; assay type: in vivo, mouse (C57BL/6); details: treated aneurysmal mice vs PBS-treated aneurysmal mice or sham surgery controls; n=3 each
Description: Temporal analysis and comparison with pharmacologic treatment were performed.
Mouse cytokine Arrays. Raybiotech cytokine arrays C1000 (AAM-CYT-1000, Raybiotech, Peachtree Corners, GA) were used to analyze 96 cytokines in aneurysm-induced cerebral vasculature at 2 and 3 weeks (n=3 each) and compared with reparixin-, clopidogrel-treated animals, and with sham surgery animals as controls (n=2).

| Compound | aneurysm formation (mice that developed aneurysms) ([1]; 1 mg/kg clopidogrel, p<0.001) [%] | effect on cytokine expression / inflammatory profile in aneurysmal mice (heatmap, FIG. 4A) [2] | aneurysm formation (mice that developed aneurysms) ([1]; 10 mg/kg reparixin, p=0.0163) [%] |
| --- | --- | --- | --- |
| COC(=O)[C@H](c1ccccc1Cl)N1CCc2sccc2C1 [clopidogrel] | 0 | moderate response |  |
| CC(C)Cc1ccc([C@@H](C)C(=O)NS(C)(=O)=O)cc1 [reparixin] |  | vastly attenuated inflammatory profile; also recorded: robust anti-inflammatory effects | 14 |
